Results on 14 compounds are retold here after patent US10196357B2, “Biaryl compositions and methods for modulating a kinase cascade” (Athenex, Inc., priority 2007, dated 2019).

The test system of one experiment is c-Src 3T3 cells. The experiment is described as follows: BrdU cell growth inhibition, c-Src 3T3. It is filed as cell-based, mouse. The conditions noted are these: for activity at 0.1 µM / activity at 1 µM / activity at 10 µM: NIH3T3, read-out: c-Src 3T3 Growth, % of Control Mean, n = 3; for activity at 0.1 µM: 100 nM; for GI50: c-Src 3T3 (c-Src527F/NIH3T3) cells. Here is the method: (§1) The GI50s for several of the compounds of the invention were assayed as described herein.
The cells were routinely cultured in DMEM supplemented with Fetal Bovine Serum (2.0% v/V), L-glutamine (2 mM) and Sodium Pyruvate (1 mM).
(§2) In the BrdU Assay for cell growth inhibition, quantitation of cell proliferation was based on the measurement of BrdU incorporation during DNA synthesis. The Cell Proliferation ELISA BrdU assay kit (colorimetric) was obtained from Roche Applied Science and performed as per vendor instructions.
(§3) The growth inhibition (GI) is determined from the formula GI=(T0−Tn×100/T0−CONn) where T0 is the BrdU growth of untreated cells at time “0”, Tn is the BrdU growth of treated cells at day “n” and CONn is the control BrdU growth of control cells at day “n”. The GI50 was extrapolated and the data plotted using XL-Fit 4.0 software.
(§4) For 96 well culture plate experiments, c-Src 3T3 medium was supplemented with 10 mM HEPES buffer. HT-29 cells were seeded in standard tissue culture 96-well plates and c-Src 3T3 cells were seeded in 96-well plates coated with Poly-D-lysine (BIOCOAT™). To increase CO2 diffusion, c-Src 3T3 96-well plates were incubated with their lids raised by ˜2 mm using sterile rubber caps.
(§5) Samples were reconstituted in DMSO at 20 mM and intermediate dilutions made using DMEM containing 10% FBS. […] Plates were assayed for BrdU and the data analyzed as above for GI50.
(§6) All compounds were initially prepared as 20 mM DMSO stock solutions and then diluted into buffer for the in vitro tumor growth assays. NG means no cell growth beyond the control and T means the number of cells in the drug treated wells was less than in the control (i.e. net cell loss).

Another experiment concerns HT29 cell line. The experiment is described as follows: BrdU cell growth inhibition, HT29. It is filed as cell-based, human. The conditions noted are these: for activity at 0.05 µM / activity at 0.5 µM / activity at 5 µM: HT-29, read-out: HT-29 Growth, % of Control Mean, n = 3; for activity at 0.05 µM: 50 nM; for activity at 0.5 µM: 500 nM. As to the method: as §1
The HT29 cell line is a NCI standard human colon carcinoma cell line.
as §2, §3, §4, §5, §6
Growth Inhibition. […] T1 values≤T0 values were designated as T, cytotoxicity.

Setting [1] is: Homo sapiens, HT-29, HT29 (Colon) cells, read-out: GI50.

Read-outs that look alike come from different tables or passages of the source.

Regarding `O=C(Cc1ccc(-c2ccccc2)cc1F)NCc1cccc(F)c1` [KX1-313, N-(3-fluorobenzyl)-4-phenyl-2-fluorophenylacetamide], in the experiment on c-Src 3T3 cells (Mus musculus), the activity at 0.1 µM stood at 91.6%, the activity at 1 µM is less than 0% and the activity at 10 µM was less than 0%. Further, in the experiment on HT29 cell line (Homo sapiens), the activity at 0.05 µM came to 80.2%, the activity at 0.5 µM is less than 0% and the activity at 5 µM was less than 0%.

Take `CC(C)COc1cc(F)cc(CNC(=O)Cc2ccc(-c3ccc(CN4CCOCC4)cc3)cn2)c1` [KX2-363]: in the experiment on c-Src 3T3 cells (Mus musculus), the activity at 0.1 µM was 92%, the activity at 1 µM was determined as 70% and the activity at 10 µM turned out to be 100%. Also, in the experiment on HT29 cell line (Homo sapiens), the activity at 0.05 µM worked out at 92%, the activity at 0.5 µM is 67% and the activity at 5 µM is less than 0%.

By GI50 is commonly meant the concentration giving 50% growth inhibition. Take `CCOc1ccc(-c2ccc(CC(=O)NCc3cccc(F)c3)cn2)cc1` [KX1-325, 2-[6-(4-Ethoxy-phenyl)-pyridin-3-yl]-N-(3-fluoro-benzyl)-acetamide]: in the experiment on c-Src 3T3 cells (Mus musculus), the activity at 0.1 µM was determined as 97.6%, the activity at 1 µM came out at 54.2% and the activity at 10 µM is less than 0%. For the same compound, the concentration for 50% growth inhibition (GI50) in the experiment with c-Src 3T3 cells (Mus musculus, read-out: GI50) worked out at 207 nM. The GI50 in the experiment with HT29 cell line (setting [1]) is 215 nM. For the same compound, in the experiment on HT29 cell line (Homo sapiens), the activity at 0.05 µM was 85%, the activity at 0.5 µM is less than 0% and the activity at 5 µM is less than 0%.

As for `CC(C)COc1cc(F)cc(CNC(=O)Cc2ccc(-c3ccc(OCCN4CCN(C)CC4)cc3)cn2)c1` [KX2-367], in the experiment on c-Src 3T3 cells (Mus musculus), the activity at 0.1 µM is 102%, the activity at 1 µM is less than 0% and the activity at 10 µM is less than 0%. Further, in the experiment on HT29 cell line (Homo sapiens), the activity at 0.05 µM is 64%, the activity at 0.5 µM was found to be 6% and the activity at 5 µM was less than 0%.

Consider `O=C(Cc1ccc(-c2ccccc2)nc1)NCc1cccc(F)c1` [KX1-314, N (3-fluorobenzyl)-2-phenylpyridine-5-acetamide], for which, in the experiment with c-Src 3T3 cells (Mus musculus), the activity at 0.1 µM stood at 93.6%, the activity at 1 µM turned out to be 88.4% and the activity at 10 µM is 39.3%. Further, in the experiment with HT29 cell line (Homo sapiens), the activity at 0.05 µM stood at 53.2%, the activity at 0.5 µM was 83.7% and the activity at 5 µM worked out at 14.4%.

As for `CC(C)COc1cc(F)cc(CNC(=O)Cc2ccc(-c3ccc(N4CCOCC4)cc3)cn2)c1` [KX2-370], in the experiment with c-Src 3T3 cells (Mus musculus), the activity at 0.1 µM stood at 104%, the activity at 1 µM turned out to be 105% and the activity at 10 µM stood at 106%. Besides, in the experiment on HT29 cell line (Homo sapiens), the activity at 0.05 µM was 112%, the activity at 0.5 µM was found to be 93% and the activity at 5 µM was found to be 81%.

Consider `O=C(Cc1ccc(-c2ccc(OCCN3CCCCC3)cc2)cn1)NCc1cccc(F)c1` [KX2-375], for which, in the experiment with c-Src 3T3 cells (Mus musculus), the activity at 0.1 µM is less than 0%, the activity at 1 µM was less than 0% and the activity at 10 µM was less than 0%. Also, the GI50 with c-Src 3T3 cells (Mus musculus, read-out: GI50) was 206 nM. For the same compound, the GI50 in the experiment with HT29 cell line (setting [1]) was 354 nM. Further, in the experiment on HT29 cell line (Homo sapiens), the activity at 0.05 µM was determined as 99%, the activity at 0.5 µM was less than 0% and the activity at 5 µM was less than 0%.

Take `CCOc1ccc(-c2ccc(CC(=O)NCc3cc(F)cc(N4CCN(C)CC4)c3)nc2)cc1` [KX2-388]: the GI50 was more than 1600 nM with c-Src 3T3 cells (Mus musculus, read-out: GI50) and 906 nM in the experiment on HT29 cell line (setting [1]).

For `CCOc1ccc(-c2ccc(CC(=O)NCc3cc(F)cc(N4CCCCC4)c3)nc2)cc1` [KX2-379], in the experiment with c-Src 3T3 cells (Mus musculus), the activity at 0.1 µM was 106%, the activity at 1 µM was found to be 104% and the activity at 10 µM is less than 0%. In addition, in the experiment on HT29 cell line (Homo sapiens), the activity at 0.05 µM was determined as 89%, the activity at 0.5 µM was 88% and the activity at 5 µM is less than 0%.

Turning to `O=C(Cc1ccc(-c2ccccc2)c[n+]1[O-])NCc1cccc(F)c1` [KX1-329 N-oxide], the GI50 result with c-Src 3T3 cells and in the experiment with HT29 cell line (HT29 (Colon) cells) was “inactive (c-Src 3T3); inactive (HT-29)” throughout.

As to `CCOc1ccc(-c2ccc(CC(=O)NCc3cccc(F)c3)nc2)c(OCCN2CCCCC2)c1` [KX2-389], the 50% growth inhibitory concentration (GI50) entry in the experiment on c-Src 3T3 cells was “Inactive”; with HT29 cell line (HT29 (Colon) cells) it was “inactive”.

Turning to `CCOc1ccc(-c2ccc(CC(=O)NCc3cc(F)cc(N4CCOCC4)c3)nc2)cc1` [KX2-382], in the experiment on c-Src 3T3 cells (Mus musculus), the activity at 0.1 µM is 117%, the activity at 1 µM worked out at 114% and the activity at 10 µM was determined as 103%. In the experiment on HT29 cell line (Homo sapiens), the activity at 0.05 µM is 80%, the activity at 0.5 µM worked out at 97% and the activity at 5 µM is 50%.

Consider `CN1CCN(CCCOc2ccc(-c3ccc(CC(=O)NCc4cccc(F)c4)nc3)cc2)CC1` [KX2-390], for which the GI50 worked out at 797 nM in the experiment on c-Src 3T3 cells (Mus musculus, read-out: GI50) and 868 nM in the experiment on HT29 cell line (setting [1]).

On to `CN(Cc1cccc(F)c1)C(=O)Cc1ccc(-c2ccccc2)cc1` [KX1-312, N-(3-fluorobenzyl)-N-methyl-4-biphenylacetamide], for which, in the experiment with c-Src 3T3 cells (Mus musculus), the activity at 0.1 µM is 98.5%, the activity at 1 µM is 94.5% and the activity at 10 µM was found to be 12.1%. Further, in the experiment on HT29 cell line (Homo sapiens), the activity at 0.05 µM amounted to 93.7%, the activity at 0.5 µM was found to be 67.6% and the activity at 5 µM stood at 33.7%.
